Ki and IC50 data for 6 compounds are collected here from ChEMBL document CHEMBL1821618, “Characteristic of alkylated chalcones from Angelica keiskei on influenza virus neuraminidase inhibition” (Bioorg Med Chem Lett, 2011).

By Ki is commonly meant the dissociation constant of the complex between target and ligand, obtained from inhibition or displacement. One may read the IC50 as the concentration needed to halve the response being measured.

The target in test [1] is Neuraminidase (Influenza A virus (strain A/Brevig Mission/1/1918 H1N1) (Influenza Avirus (strain A/South Carolina/1/1918 H1N1)), UniProt Q9IGQ6). The experiment in a line: Noncompetitive inhibition of Influenza A virus (A/Brevig Mission/1/1918(H1N1)) recombinant neuraminidase using 4-methylumbelliferyl-alpha-D-N-acetylneuraminic acid sodium salt hydrate solution substrate by double reciprocal Lineweaver-Burk plot and dixon plot analysis.
Sequence of Neuraminidase (Influenza A virus (strain A/Brevig Mission/1/1918 H1N1) (Influenza Avirus (strain A/South Carolina/1/1918 H1N1)), UniProt Q9IGQ6) (Q9IGQ6 whole entry): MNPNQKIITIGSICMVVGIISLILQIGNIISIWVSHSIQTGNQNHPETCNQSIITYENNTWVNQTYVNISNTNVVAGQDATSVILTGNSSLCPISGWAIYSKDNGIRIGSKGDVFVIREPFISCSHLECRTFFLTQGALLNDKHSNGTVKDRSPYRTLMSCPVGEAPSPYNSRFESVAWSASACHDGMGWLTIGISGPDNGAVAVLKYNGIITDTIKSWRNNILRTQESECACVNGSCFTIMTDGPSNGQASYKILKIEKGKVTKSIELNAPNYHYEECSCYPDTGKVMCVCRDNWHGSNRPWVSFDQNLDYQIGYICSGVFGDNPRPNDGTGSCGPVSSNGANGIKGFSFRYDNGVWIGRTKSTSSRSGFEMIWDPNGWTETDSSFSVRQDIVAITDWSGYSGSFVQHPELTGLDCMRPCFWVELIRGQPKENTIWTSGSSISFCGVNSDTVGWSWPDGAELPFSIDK

Test [2] shares this target. As to the kind of experiment: Inhibition of Influenza A virus (A/Brevig Mission/1/1918(H1N1)) recombinant neuraminidase using 4-methylumbelliferyl-alpha-D-N-acetylneuraminic acid sodium salt hydrate solution substrate by ELISA.

Take `COc1ccc(C(=O)/C=C/c2ccc(O)cc2)c(O)c1CC=C(C)C`: the Ki in test [1] turned out to be 50.2 µM. Moreover, in test [2], the IC50 came out at 42.1 µM.

As for `C=C(C)C(O)CC/C(C)=C/Cc1c(O)ccc(C(=O)/C=C/c2ccc(O)cc2)c1O` (configuration not stated) [XANTHOANGELOL B], the Ki in test [1] worked out at 20.7 µM. The half-maximal inhibitory concentration (IC50) in test [2] was 22.5 µM.

For the compound `C=C(C)C(O)Cc1c(OC)ccc(C(=O)/C=C/c2ccc(O)cc2)c1O` (configuration not stated) [XANTHOANGELOL D], the Ki in test [1] is 14 µM. Besides, the 50% inhibitory concentration (IC50) in test [2] came to 12.3 µM.

As for `COc1ccc(C(=O)/C=C/c2ccc(O)cc2)c(O)c1C/C=C(\C)CCC=C(C)C` [XANTHOANGELOL F], the Ki in test [1] came out at 123 µM. Also, the IC50 in test [2] turned out to be 85.9 µM.

Turning to `C=C(C)C(O)CC/C(C)=C/Cc1c(OC)ccc(C(=O)/C=C/c2ccc(O)cc2)c1O` (configuration not stated) [XANTHOANGELOL G], the inhibitory constant (Ki) in test [1] stood at 20 µM. Moreover, in test [2], the IC50 turned out to be 24.2 µM.

Consider `COC(CC/C(C)=C/Cc1c(O)ccc(C(=O)/C=C/c2ccc(O)cc2)c1O)OC` [XANTHOKEISTAL A], for which, in test [1], the Ki is 33.5 µM. Moreover, the IC50 in test [2] was determined as 30.9 µM.
